Source: ChEMBL document CHEMBL1156116, “Histone deacetylase and microtubules as targets for the synthesis of releasable conjugate compounds” (Bioorg Med Chem Lett, 2009)
The source made the active and inactive calls. The calls are words filed in the database; no cut-off is given here.

How the values were obtained:
[1] = test system: IGROV-1; assay: Antiproliferative activity against human IGROV1 cells assessed as growth inhibition after 72 hrs by Coulter counting analysis; format: functional, cell-based; conditions: IGROV-1, 72 h
[2] = biological target: Histone deacetylase 1 (Homo sapiens) (UniProt Q13547); assay: Inhibition of human HDAC1 in human IGROV1 cells assessed as histone H4 acetylation after 4 hrs by Western blot analysis; format: cell-based; conditions: IGROV-1
[3] = biological target: T1, Protein deacetylase HDAC6 (Homo sapiens) (UniProt Q9UBN7); assay: Inhibition of human HDAC6 in human IGROV1 cells assessed as alpha-tubulin acetylation after 4 hrs by Western blot analysis; format: cell-based; conditions: IGROV-1
T1 sequence (whole entry): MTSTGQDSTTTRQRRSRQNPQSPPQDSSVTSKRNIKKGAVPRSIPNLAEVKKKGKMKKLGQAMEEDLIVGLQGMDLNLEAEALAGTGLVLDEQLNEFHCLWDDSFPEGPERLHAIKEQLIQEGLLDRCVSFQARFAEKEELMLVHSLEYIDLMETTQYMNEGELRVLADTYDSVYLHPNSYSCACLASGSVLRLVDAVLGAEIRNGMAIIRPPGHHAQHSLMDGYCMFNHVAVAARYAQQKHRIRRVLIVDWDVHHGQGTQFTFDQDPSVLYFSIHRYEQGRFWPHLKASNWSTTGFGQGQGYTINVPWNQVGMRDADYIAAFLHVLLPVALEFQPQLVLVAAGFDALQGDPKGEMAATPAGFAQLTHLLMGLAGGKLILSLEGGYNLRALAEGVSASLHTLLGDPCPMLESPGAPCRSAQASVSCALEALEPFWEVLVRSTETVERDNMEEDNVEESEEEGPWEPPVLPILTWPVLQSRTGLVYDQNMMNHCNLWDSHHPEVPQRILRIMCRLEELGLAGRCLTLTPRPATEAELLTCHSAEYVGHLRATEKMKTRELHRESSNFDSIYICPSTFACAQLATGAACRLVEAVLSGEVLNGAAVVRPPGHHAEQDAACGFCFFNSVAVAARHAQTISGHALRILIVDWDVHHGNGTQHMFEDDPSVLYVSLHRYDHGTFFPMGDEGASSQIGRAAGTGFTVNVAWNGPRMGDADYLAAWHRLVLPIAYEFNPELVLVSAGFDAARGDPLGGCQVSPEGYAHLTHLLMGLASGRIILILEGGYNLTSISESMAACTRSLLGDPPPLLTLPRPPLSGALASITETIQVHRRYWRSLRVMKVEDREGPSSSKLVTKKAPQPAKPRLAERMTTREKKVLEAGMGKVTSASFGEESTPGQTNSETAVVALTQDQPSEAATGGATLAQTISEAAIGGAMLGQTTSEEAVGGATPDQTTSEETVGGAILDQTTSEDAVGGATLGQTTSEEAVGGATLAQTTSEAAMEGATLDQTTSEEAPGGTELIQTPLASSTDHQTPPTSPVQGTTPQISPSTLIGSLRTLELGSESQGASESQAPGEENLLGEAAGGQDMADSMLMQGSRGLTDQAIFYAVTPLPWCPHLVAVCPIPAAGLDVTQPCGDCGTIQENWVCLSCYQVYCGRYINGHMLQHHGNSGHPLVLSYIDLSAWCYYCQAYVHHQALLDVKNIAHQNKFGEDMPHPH

[4] = biological target: T1, Protein deacetylase HDAC6 (Homo sapiens); assay: Inhibition of human HDAC6 in human IGROV1 cells assessed as alpha-tubulin acetylation at 0.1 uM after 48 hrs by Western blot analysis; format: cell-based; conditions: IGROV-1
[5] = biological target: Histone deacetylase 1 (Homo sapiens) (UniProt Q13547); assay: Inhibition of human HDAC1 in human IGROV1 cells assessed as histone H4 acetylation at 0.1 uM after 4 hrs by Western blot analysis; format: cell-based; conditions: IGROV-1
[6] = biological target: T1, Protein deacetylase HDAC6 (Homo sapiens); assay: Inhibition of human HDAC6 in human IGROV1 cells assessed as alpha-tubulin acetylation at 0.33 to 0.1 uM after 48 hrs by Western blot analysis; format: cell-based; conditions: IGROV-1
[7] = test system: IGROV-1; assay: Induction of apoptosis in human IGROV1 cells at IC80 concentration by TUNEL assay; format: functional

Chain of Histone deacetylase 1 (Homo sapiens) (Q13547 whole entry): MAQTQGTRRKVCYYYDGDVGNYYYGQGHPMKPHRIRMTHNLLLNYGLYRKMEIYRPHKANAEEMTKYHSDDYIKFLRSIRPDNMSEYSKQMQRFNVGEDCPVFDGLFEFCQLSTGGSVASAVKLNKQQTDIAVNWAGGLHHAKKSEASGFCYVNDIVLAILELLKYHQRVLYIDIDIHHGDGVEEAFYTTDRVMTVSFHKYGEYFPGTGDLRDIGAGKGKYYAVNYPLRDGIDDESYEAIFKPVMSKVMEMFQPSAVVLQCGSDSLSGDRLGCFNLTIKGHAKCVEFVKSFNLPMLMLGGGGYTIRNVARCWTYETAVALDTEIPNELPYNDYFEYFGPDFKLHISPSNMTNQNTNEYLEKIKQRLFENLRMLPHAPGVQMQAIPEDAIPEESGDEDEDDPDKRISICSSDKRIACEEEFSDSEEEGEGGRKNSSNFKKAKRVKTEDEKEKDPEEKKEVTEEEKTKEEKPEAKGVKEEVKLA

| SMILES | IC50 [1] [nM] | other results |
| --- | --- | --- |
| O=C(/C=C/c1ccc(CN(CCO)Cc2ccccc2)cc1)NO | 18 | inhibition [2]: Dose-dependent effect; inhibition [3]: Dose-dependent effect |
| COc1cc2c(c(OC)c1OC)-c1ccc(SC)c(=O)cc1[C@@H](NC(=O)CCCSSCCCC(=O)N[C@H]1CCc3cc(OC)c(OC)c(OC)c3-c3ccc(SC)c(=O)cc31)CC2 | 50 | inhibition [4]: Active; inhibition [5]: Active |
| C/C=C(\C)C(=O)N[C@@H](c1ccccc1)[C@@H](O)C(=O)O[C@H]1C[C@@]2(O)[C@@H](OC(=O)c3ccccc3)[C@@H]3[C@]4(OC(C)=O)CO[C@@H]4C[C@H](O)[C@@]3(C)C(=O)[C@H](OC(C)=O)C(=C1C)C2(C)C [CEPHALOMANNINE] | 300 |  |
| CC(C)(C)OC(=O)N(Cc1ccccc1)Cc1ccc(/C=C/C(=O)NO)cc1 | 19100 |  |
| CC(C)(C)OC(=O)N(Cc1ccccc1)Cc1ccc(/C=C/C(=O)NOC2CCCCO2)cc1 (configuration not stated) | 41000 |  |
| COc1cc2c(c(OC)c1OC)-c1ccc(SC)c(=O)cc1[C@@H](NC(=O)CCCSSCCCC(=O)OCCN(Cc1ccccc1)Cc1ccc(/C=C/C(=O)NO)cc1)CC2 | 78 | inhibition [6]: Active; Activity [7]: 45% |
| O=C(/C=C/c1ccc(CNCc2ccccc2)cc1)NO | 480 | inhibition [2]: Dose-dependent effect; inhibition [3]: Dose-dependent effect |
| CC(=O)O[C@H]1C(=O)[C@@]2(C)[C@H]([C@H](OC(=O)c3ccccc3)[C@]3(O)C[C@H](OC(=O)[C@H](O)[C@@H](NC(=O)c4ccccc4)c4ccccc4)C(C)=C1C3(C)C)[C@]1(OC(C)=O)CO[C@@H]1C[C@@H]2O [PACLITAXEL] | 60 |  |
| COc1cc2c(c(OC)c1OC)-c1ccc(SC)c(=O)cc1[C@@H](NC(=O)CCCSSCCCC(=O)O)CC2 | 19 |  |
